From the supplement of paper PMC12463676, “Small-molecule dissolution of stress granules by redox modulation benefits ALS models” (Nature Chemical Biology, 2025)

Key:
lipoamide = compound: NC(=O)CCCCC1CCSS1 [lipoamide]; assay: thermal stability z-score vs DMSO; higher = more thermally stabilized by treatment; settings: HeLa, lipoamide concentration 100 µM
Method: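 Cellular thermal proteome profiling in HeLa cells. Cells were treated with 100 µM lipoamide for 1 h, with or without 1 mM arsenate for a further 1 h, then heated to ten temperatures (37-66.3 °C), and soluble protein was quantified by TMT mass spectrometry relative to 0.1% DMSO controls. The thermal stability score (sum of log2 fold changes minus the abundance score) was transformed to a z-score; mean of n = 3 experiments.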

potassium arsenate = compound: O=[As]([O-])(O)O.[K+] [potassium arsenate]; assay: as above; settings: HeLa; arsenate concentration 1 mM
Method: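 Cellular thermal proteome profiling in HeLa cells treated with 1 mM arsenate for 1 h (DMSO pretreatment), heated to ten temperatures (37-66.3 °C). Soluble protein was quantified by TMT mass spectrometry relative to DMSO controls; the thermal stability score was transformed to a z-score; mean of n = 3 experiments.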

[1] = arsenate co-treatment: 1 mM arsenate 1 h
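Further: each temperature applied for 3 min, abundance score taken as mean log2 fold change at the two lowest temperatures, z-score obtained by mean subtraction and division by SD.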

Chain of UniProt Q02224 (Q02224 whole entry): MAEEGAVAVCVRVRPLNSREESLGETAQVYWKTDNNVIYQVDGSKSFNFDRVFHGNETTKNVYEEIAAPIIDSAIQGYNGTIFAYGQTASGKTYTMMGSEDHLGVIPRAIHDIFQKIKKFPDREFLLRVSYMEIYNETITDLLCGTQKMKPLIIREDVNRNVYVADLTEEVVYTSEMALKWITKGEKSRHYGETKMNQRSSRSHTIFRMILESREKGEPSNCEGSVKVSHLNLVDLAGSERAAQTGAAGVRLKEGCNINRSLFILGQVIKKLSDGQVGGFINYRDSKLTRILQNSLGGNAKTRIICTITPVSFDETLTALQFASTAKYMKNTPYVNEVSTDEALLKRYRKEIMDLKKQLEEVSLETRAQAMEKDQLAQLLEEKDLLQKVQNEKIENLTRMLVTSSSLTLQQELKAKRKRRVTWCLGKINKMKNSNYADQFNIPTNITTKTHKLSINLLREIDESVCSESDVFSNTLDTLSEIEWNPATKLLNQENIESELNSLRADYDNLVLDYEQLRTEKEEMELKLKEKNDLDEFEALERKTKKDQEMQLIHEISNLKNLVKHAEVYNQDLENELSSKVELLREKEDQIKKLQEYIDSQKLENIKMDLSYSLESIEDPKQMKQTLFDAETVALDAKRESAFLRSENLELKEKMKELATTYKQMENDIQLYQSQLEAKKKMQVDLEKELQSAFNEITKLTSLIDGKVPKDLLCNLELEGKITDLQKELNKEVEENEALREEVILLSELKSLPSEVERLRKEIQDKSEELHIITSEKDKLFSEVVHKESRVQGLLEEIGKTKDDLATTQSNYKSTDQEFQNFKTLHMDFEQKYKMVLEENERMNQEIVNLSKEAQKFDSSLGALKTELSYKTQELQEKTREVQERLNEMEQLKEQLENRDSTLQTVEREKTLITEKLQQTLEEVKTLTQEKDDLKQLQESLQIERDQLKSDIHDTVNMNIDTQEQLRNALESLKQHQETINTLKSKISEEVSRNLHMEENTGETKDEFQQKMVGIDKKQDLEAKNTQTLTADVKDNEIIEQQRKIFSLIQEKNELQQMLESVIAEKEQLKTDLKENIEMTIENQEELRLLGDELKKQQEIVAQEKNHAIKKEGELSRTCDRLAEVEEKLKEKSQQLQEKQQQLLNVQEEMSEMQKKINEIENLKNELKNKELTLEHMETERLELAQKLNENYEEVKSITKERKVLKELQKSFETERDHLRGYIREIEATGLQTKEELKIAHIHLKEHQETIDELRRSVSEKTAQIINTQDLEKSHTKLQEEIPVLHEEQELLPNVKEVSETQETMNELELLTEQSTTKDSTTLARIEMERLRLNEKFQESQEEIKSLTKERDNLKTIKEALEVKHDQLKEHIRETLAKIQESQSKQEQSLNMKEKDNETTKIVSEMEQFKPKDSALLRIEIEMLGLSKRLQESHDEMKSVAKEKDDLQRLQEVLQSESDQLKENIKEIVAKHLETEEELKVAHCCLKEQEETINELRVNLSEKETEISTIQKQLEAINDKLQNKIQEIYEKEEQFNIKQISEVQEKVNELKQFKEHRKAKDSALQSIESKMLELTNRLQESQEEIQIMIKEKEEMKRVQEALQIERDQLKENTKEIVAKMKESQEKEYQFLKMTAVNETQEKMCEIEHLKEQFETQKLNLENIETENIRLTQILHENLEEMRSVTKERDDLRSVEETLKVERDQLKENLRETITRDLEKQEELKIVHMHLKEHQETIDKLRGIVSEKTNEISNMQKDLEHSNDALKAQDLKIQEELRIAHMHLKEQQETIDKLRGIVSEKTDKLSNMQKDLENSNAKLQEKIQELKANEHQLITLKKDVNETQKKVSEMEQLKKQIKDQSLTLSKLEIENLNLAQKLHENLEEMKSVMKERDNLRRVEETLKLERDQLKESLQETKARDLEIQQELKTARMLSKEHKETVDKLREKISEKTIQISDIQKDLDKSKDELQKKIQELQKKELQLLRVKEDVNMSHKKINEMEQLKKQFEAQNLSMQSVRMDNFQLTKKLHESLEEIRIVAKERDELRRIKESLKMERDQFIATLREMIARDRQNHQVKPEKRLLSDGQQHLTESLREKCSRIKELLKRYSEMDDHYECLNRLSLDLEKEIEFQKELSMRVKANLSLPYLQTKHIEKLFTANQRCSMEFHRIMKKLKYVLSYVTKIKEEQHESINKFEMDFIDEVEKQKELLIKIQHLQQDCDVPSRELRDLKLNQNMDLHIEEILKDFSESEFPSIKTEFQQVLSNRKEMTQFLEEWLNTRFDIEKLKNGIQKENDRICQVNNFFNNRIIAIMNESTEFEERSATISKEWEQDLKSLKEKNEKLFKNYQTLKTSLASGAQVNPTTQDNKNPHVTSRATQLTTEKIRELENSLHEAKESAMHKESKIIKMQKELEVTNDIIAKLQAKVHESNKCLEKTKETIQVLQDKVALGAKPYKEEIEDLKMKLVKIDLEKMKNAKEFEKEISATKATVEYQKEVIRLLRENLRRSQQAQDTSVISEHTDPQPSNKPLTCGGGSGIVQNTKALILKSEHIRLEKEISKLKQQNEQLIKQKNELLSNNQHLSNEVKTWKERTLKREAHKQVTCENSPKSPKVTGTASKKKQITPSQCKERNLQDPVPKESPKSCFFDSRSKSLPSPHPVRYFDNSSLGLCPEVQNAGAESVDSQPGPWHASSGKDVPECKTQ
Chain of UniProt Q86WB0 (Q86WB0 whole entry): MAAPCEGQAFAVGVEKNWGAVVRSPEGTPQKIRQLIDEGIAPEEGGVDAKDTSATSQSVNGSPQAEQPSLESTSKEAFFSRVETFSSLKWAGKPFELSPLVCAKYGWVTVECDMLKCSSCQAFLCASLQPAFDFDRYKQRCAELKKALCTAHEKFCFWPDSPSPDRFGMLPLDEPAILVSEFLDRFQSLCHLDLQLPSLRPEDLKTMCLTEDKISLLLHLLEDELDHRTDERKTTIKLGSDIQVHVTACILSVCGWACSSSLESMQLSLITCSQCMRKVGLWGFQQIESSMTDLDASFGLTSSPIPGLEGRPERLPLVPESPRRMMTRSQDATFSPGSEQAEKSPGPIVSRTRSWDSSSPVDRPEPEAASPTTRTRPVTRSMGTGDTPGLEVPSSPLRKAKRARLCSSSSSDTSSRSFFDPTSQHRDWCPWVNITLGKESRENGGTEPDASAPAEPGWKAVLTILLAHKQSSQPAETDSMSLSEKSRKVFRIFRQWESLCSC
Chain of UniProt Q9NXW9 (Q9NXW9 whole entry): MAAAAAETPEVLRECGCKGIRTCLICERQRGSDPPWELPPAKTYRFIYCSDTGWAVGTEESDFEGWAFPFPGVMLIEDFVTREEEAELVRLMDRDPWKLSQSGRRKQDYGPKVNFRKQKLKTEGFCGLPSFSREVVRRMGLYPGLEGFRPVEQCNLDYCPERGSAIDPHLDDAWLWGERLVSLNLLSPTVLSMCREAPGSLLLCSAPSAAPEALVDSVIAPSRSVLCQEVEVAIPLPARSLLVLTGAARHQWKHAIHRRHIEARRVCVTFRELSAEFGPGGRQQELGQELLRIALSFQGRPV
Chain of UniProt P05556 (P05556 whole entry): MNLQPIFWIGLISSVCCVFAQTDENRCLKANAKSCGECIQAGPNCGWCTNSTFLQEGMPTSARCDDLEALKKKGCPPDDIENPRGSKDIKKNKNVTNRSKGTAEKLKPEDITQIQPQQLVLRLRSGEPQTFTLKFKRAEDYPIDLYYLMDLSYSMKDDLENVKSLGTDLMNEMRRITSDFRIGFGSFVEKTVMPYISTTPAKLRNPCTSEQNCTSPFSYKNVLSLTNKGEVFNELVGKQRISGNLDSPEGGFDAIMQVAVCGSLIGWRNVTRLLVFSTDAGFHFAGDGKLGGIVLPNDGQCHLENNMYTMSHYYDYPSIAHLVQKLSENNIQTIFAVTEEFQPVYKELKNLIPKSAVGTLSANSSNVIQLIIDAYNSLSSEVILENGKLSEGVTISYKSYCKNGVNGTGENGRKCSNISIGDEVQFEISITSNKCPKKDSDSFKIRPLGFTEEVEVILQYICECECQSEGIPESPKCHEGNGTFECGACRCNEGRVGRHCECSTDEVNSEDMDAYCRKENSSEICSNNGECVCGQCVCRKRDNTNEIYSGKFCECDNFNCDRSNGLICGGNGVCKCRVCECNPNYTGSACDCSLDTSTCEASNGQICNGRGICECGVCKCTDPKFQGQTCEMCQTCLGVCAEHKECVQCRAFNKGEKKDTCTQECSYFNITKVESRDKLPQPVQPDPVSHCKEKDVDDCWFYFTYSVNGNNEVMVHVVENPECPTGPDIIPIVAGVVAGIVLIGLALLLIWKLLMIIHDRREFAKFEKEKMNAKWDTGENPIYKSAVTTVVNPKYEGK
Chain of UniProt Q86Y07 (Q86Y07 whole entry): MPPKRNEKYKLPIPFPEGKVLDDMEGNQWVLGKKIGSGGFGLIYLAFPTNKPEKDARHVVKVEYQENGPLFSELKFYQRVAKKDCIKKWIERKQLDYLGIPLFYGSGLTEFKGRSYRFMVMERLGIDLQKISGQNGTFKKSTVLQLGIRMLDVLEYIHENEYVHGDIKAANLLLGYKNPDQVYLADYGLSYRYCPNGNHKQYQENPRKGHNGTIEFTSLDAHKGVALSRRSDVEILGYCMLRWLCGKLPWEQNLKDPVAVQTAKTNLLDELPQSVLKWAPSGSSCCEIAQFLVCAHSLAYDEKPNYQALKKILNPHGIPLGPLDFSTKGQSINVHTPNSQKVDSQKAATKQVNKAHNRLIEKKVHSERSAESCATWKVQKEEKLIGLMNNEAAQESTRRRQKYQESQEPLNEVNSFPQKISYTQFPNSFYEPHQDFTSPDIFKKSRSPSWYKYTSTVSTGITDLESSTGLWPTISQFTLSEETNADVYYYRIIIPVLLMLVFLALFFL
Chain of UniProt P13498 (P13498 whole entry): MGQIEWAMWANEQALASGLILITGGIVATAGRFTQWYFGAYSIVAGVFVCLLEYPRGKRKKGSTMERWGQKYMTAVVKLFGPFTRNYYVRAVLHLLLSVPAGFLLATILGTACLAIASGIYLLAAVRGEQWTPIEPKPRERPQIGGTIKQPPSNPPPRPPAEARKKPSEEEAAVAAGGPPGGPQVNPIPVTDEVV

RAD54B (UniProt Q9Y620) was tested. Which thermal stability z-score (lipoamide; [1]) did it give?
The thermal stability z-score was -0.335.

What about the thermal stability z-score (lipoamide; arsenate co-treatment: none) of the same target?
The thermal stability z-score was -0.346.

What about the thermal stability z-score (potassium arsenate) of the same target?
Its thermal stability z-score is -0.753.

For GORASP2 (UniProt Q9H8Y8), which thermal stability z-score (lipoamide; [1]) is on record?
Its thermal stability z-score is 0.45.

What about the thermal stability z-score (lipoamide; arsenate co-treatment: none) of the same target?
Its thermal stability z-score is -0.749.

What about the thermal stability z-score (potassium arsenate) of the same target?
The thermal stability z-score was 0.824.

How did the thermal stability z-score (lipoamide; [1]) turn out when CDC16 (UniProt Q13042) was run?
Its thermal stability z-score is 0.159.

And the thermal stability z-score (lipoamide; arsenate co-treatment: none)?
The thermal stability z-score was 0.0509.

And the thermal stability z-score (potassium arsenate)?
The thermal stability z-score was -0.551.

Which thermal stability z-score (lipoamide; [1]) does the source give for DSP (UniProt P15924) here?
The thermal stability z-score was 3.08.

What about the thermal stability z-score (lipoamide; arsenate co-treatment: none) of the same target?
The thermal stability z-score was 3.94.

What about the thermal stability z-score (potassium arsenate) of the same target?
Its thermal stability z-score is -0.576.

Which results are given for BTBD10 (UniProt Q9BSF8)?
thermal stability z-score (lipoamide; [1]): 0.00662; thermal stability z-score (lipoamide; arsenate co-treatment: none): 0.0899; thermal stability z-score (potassium arsenate): -0.162

With ALKBH4 (UniProt Q9NXW9) as the target, how does the thermal stability z-score (lipoamide; [1]) read?
The thermal stability z-score was 0.0364.

And the thermal stability z-score (lipoamide; arsenate co-treatment: none)?
Its thermal stability z-score is 0.0782.

And the thermal stability z-score (potassium arsenate)?
Its thermal stability z-score is -0.163.

ITGB1 (UniProt P05556) was tested. Which thermal stability z-score (lipoamide; [1]) did it give?
Its thermal stability z-score is -0.614.

And the thermal stability z-score (lipoamide; arsenate co-treatment: none)?
Its thermal stability z-score is -0.431.

What about the thermal stability z-score (potassium arsenate) of the same target?
Its thermal stability z-score is 0.139.

How did the thermal stability z-score (lipoamide; [1]) turn out when RBBP6 (UniProt Q7Z6E9) was run?
Its thermal stability z-score is 0.06.

What about the thermal stability z-score (lipoamide; arsenate co-treatment: none) of the same target?
Its thermal stability z-score is -0.0854.

And the thermal stability z-score (potassium arsenate)?
Its thermal stability z-score is -0.263.

For RAB10 (UniProt P61026), which thermal stability z-score (lipoamide; [1]) is on record?
The thermal stability z-score was 0.387.

What about the thermal stability z-score (lipoamide; arsenate co-treatment: none) of the same target?
The thermal stability z-score was 0.379.

And the thermal stability z-score (potassium arsenate)?
Its thermal stability z-score is 0.276.

KIAA1217 (UniProt Q5T5P2) was tested. Which thermal stability z-score (lipoamide; [1]) did it give?
The thermal stability z-score was -0.00757.

And the thermal stability z-score (lipoamide; arsenate co-treatment: none)?
The thermal stability z-score was -0.0174.

And the thermal stability z-score (potassium arsenate)?
The thermal stability z-score was 0.188.

CASC3 (UniProt O15234) was tested. Which thermal stability z-score (lipoamide; [1]) did it give?
The thermal stability z-score was 0.25.

What about the thermal stability z-score (lipoamide; arsenate co-treatment: none) of the same target?
The thermal stability z-score was 0.544.

And the thermal stability z-score (potassium arsenate)?
The thermal stability z-score was -1.15.

Which results are given for AK4 (UniProt P27144)?
thermal stability z-score (lipoamide; [1]): 0.119; thermal stability z-score (lipoamide; arsenate co-treatment: none): 0.256; thermal stability z-score (potassium arsenate): -0.724

Which results are given for RALBP1 (UniProt Q15311)?
thermal stability z-score (lipoamide; [1]): 0.0469; thermal stability z-score (lipoamide; arsenate co-treatment: none): 0.055; thermal stability z-score (potassium arsenate): 0.00922

What does the source list for CENPE (UniProt Q02224)?
thermal stability z-score (lipoamide; [1]): 0.141; thermal stability z-score (lipoamide; arsenate co-treatment: none): 0.088; thermal stability z-score (potassium arsenate): 0.013

With VRK2 (UniProt Q86Y07) as the target, how does the thermal stability z-score (lipoamide; [1]) read?
The thermal stability z-score was -0.383.

And the thermal stability z-score (lipoamide; arsenate co-treatment: none)?
The thermal stability z-score was -0.335.

What about the thermal stability z-score (potassium arsenate) of the same target?
Its thermal stability z-score is -0.6.

With MRPL21 (UniProt Q7Z2W9) as the target, how does the thermal stability z-score (lipoamide; [1]) read?
Its thermal stability z-score is -0.754.

What about the thermal stability z-score (lipoamide; arsenate co-treatment: none) of the same target?
Its thermal stability z-score is -0.591.

What about the thermal stability z-score (potassium arsenate) of the same target?
Its thermal stability z-score is 0.0405.

What does the source list for ARHGAP28 (UniProt Q9P2N2)?
thermal stability z-score (lipoamide; [1]): -0.114; thermal stability z-score (lipoamide; arsenate co-treatment: none): -0.103; thermal stability z-score (potassium arsenate): -0.0848

How did the thermal stability z-score (lipoamide; [1]) turn out when ABCC1 (UniProt P33527) was run?
Its thermal stability z-score is 0.473.

What about the thermal stability z-score (lipoamide; arsenate co-treatment: none) of the same target?
The thermal stability z-score was 0.0236.

What about the thermal stability z-score (potassium arsenate) of the same target?
Its thermal stability z-score is -0.579.

For GMNN (UniProt O75496), which thermal stability z-score (lipoamide; [1]) is on record?
The thermal stability z-score was 0.365.

And the thermal stability z-score (lipoamide; arsenate co-treatment: none)?
Its thermal stability z-score is 0.809.

And the thermal stability z-score (potassium arsenate)?
The thermal stability z-score was 0.576.

Which results are given for CBR3 (UniProt O75828)?
thermal stability z-score (lipoamide; [1]): 0.347; thermal stability z-score (lipoamide; arsenate co-treatment: none): -0.0437; thermal stability z-score (potassium arsenate): 0.282

For CACUL1 (UniProt Q86Y37), which thermal stability z-score (lipoamide; [1]) is on record?
The thermal stability z-score was 0.0904.

And the thermal stability z-score (lipoamide; arsenate co-treatment: none)?
The thermal stability z-score was 0.129.

What about the thermal stability z-score (potassium arsenate) of the same target?
The thermal stability z-score was -0.563.

How did the thermal stability z-score (lipoamide; [1]) turn out when SH3BP5 (UniProt O60239) was run?
The thermal stability z-score was 0.466.

What about the thermal stability z-score (lipoamide; arsenate co-treatment: none) of the same target?
The thermal stability z-score was -0.17.

What about the thermal stability z-score (potassium arsenate) of the same target?
Its thermal stability z-score is -0.00483.

For ZC3HC1 (UniProt Q86WB0), which thermal stability z-score (lipoamide; [1]) is on record?
Its thermal stability z-score is -0.377.

What about the thermal stability z-score (lipoamide; arsenate co-treatment: none) of the same target?
Its thermal stability z-score is 0.164.

And the thermal stability z-score (potassium arsenate)?
The thermal stability z-score was -0.364.

What does the source list for PDE8B (UniProt O95263)?
thermal stability z-score (lipoamide; [1]): -0.563; thermal stability z-score (lipoamide; arsenate co-treatment: none): 0.202; thermal stability z-score (potassium arsenate): 0.228

How did the thermal stability z-score (lipoamide; [1]) turn out when NAA25 (UniProt Q14CX7) was run?
Its thermal stability z-score is 0.177.

What about the thermal stability z-score (lipoamide; arsenate co-treatment: none) of the same target?
Its thermal stability z-score is 0.0532.

And the thermal stability z-score (potassium arsenate)?
The thermal stability z-score was -0.0259.

With DOCK5 (UniProt Q9H7D0) as the target, how does the thermal stability z-score (lipoamide; [1]) read?
Its thermal stability z-score is -0.433.

And the thermal stability z-score (lipoamide; arsenate co-treatment: none)?
Its thermal stability z-score is -0.478.

What about the thermal stability z-score (potassium arsenate) of the same target?
The thermal stability z-score was -0.0423.

Which results are given for MRFAP1 (UniProt Q9Y605)?
thermal stability z-score (lipoamide; [1]): 0.86; thermal stability z-score (lipoamide; arsenate co-treatment: none): -0.215; thermal stability z-score (potassium arsenate): -0.23

How did the thermal stability z-score (lipoamide; [1]) turn out when HSCB (UniProt Q8IWL3) was run?
The thermal stability z-score was 0.0143.

And the thermal stability z-score (lipoamide; arsenate co-treatment: none)?
Its thermal stability z-score is 0.667.

What about the thermal stability z-score (potassium arsenate) of the same target?
Its thermal stability z-score is 0.175.

How did the thermal stability z-score (lipoamide; [1]) turn out when PGM2L1 (UniProt Q6PCE3) was run?
The thermal stability z-score was 0.405.

And the thermal stability z-score (lipoamide; arsenate co-treatment: none)?
The thermal stability z-score was 0.129.

And the thermal stability z-score (potassium arsenate)?
The thermal stability z-score was 0.314.

Which thermal stability z-score (lipoamide; [1]) does the source give for ARAF (UniProt P10398) here?
The thermal stability z-score was -0.299.

And the thermal stability z-score (lipoamide; arsenate co-treatment: none)?
The thermal stability z-score was -0.252.

What about the thermal stability z-score (potassium arsenate) of the same target?
Its thermal stability z-score is -0.275.

What does the source list for CCDC9 (UniProt Q9Y3X0)?
thermal stability z-score (lipoamide; [1]): 1.57; thermal stability z-score (lipoamide; arsenate co-treatment: none): 1.4; thermal stability z-score (potassium arsenate): -0.162

How did the thermal stability z-score (lipoamide; [1]) turn out when ARFGEF2 (UniProt Q9Y6D5) was run?
The thermal stability z-score was -0.376.

And the thermal stability z-score (lipoamide; arsenate co-treatment: none)?
Its thermal stability z-score is -0.0733.

What about the thermal stability z-score (potassium arsenate) of the same target?
Its thermal stability z-score is 0.0926.

LANCL2 (UniProt Q9NS86) was tested. Which thermal stability z-score (lipoamide; [1]) did it give?
The thermal stability z-score was -1.13.

What about the thermal stability z-score (lipoamide; arsenate co-treatment: none) of the same target?
Its thermal stability z-score is -0.454.

And the thermal stability z-score (potassium arsenate)?
Its thermal stability z-score is -0.393.

For CYBA (UniProt P13498), which thermal stability z-score (lipoamide; [1]) is on record?
The thermal stability z-score was 0.0672.

And the thermal stability z-score (lipoamide; arsenate co-treatment: none)?
Its thermal stability z-score is 0.232.

And the thermal stability z-score (potassium arsenate)?
Its thermal stability z-score is 0.653.

What does the source list for SCPEP1 (UniProt Q9HB40)?
thermal stability z-score (lipoamide; [1]): -0.372; thermal stability z-score (lipoamide; arsenate co-treatment: none): 0.187; thermal stability z-score (potassium arsenate): -0.196

What does the source list for PSEN2 (UniProt P49810)?
thermal stability z-score (lipoamide; [1]): -0.815; thermal stability z-score (lipoamide; arsenate co-treatment: none): -1.79; thermal stability z-score (potassium arsenate): -1.19
